# Data as given in US8546452B2, “S1P3 receptor antagonist” (TOA Eiyo Ltd., priority 2005, dated 2013).
# Read-outs that look alike come from different tables or passages of the source.
# Columns and labels:
# Assay type in all cases: cell-based
# hS1P3 [1] = target: T1, hS1P3 (Homo sapiens, UniProt Q99500); assay: Suppressive effect on S1P-induced increase in [Ca2+]i, CHO-K1 cells expressing S1P3 (Fura 2-AM), IC50; conditions: S1P solution 50 nmol/L, read-out: hS1P3 suppression IC50
# hS1P3 [2] = target: T1, hS1P3; assay: S1P receptor subtype selectivity, S1P-induced [Ca2+]i increase in CHO-K1 cells stably expressing S1P3 (Calcium3)
# Procedure: (§1) The selectivity to the S1P receptor subtype was examined in the following manner. […] Furthermore, a Calcium3 (Molecular Devices, Inc.) solution prepared in HBSS (+) buffer, which is a fluorescent Ca^2+ indicator, was added, and the cells were incubated for 60 minutes at 37° C. Then, 100 μL of a test compound solution prepared to a concentration of 2×10 μmol/L was added, and the cells were incubated for 20 minutes at 37° C. […] The indicator was prepared and used according to the instruction manual.
# (§2) A solution of the test compound was prepared by dissolving each of the test compounds in DMSO to a concentration of 10 mmol/L, and then diluting the solution with an HBSS (+) buffer solution to the predetermined concentration. […] The measurement values were obtained by subtracting the maximum RFU value for the blind test from the maximum RFU values for control or each test compounds. A decrease in the measurement value for the test compound relative to the control was indicated as the suppression rate (%), from which the IC50 value was calculated.
# hS1P1 = target: T2, hS1P1 (Homo sapiens, UniProt P21453); assay: S1P receptor subtype selectivity, S1P-induced [Ca2+]i increase in CHO-K1 cells stably expressing S1P1 (Calcium3)
# T2 construct: expressed in transfected cells
# Procedure: as §1, §2
# hS1P2 = target: T3, hS1P2 (Homo sapiens, UniProt O95136); assay: S1P receptor subtype selectivity, S1P-induced [Ca2+]i increase in CHO-K1 cells stably expressing S1P2 (Calcium3)
# T3 construct: expressed in transfected cells
# Procedure: as §1, §2
# [3] = 10 μM, CHO-K1 stably expressing S1P3, S1P solution 50 nmol/L, Calcium3, read-out: Suppression rate at 10 μM (%) hS1P3
# [4] = 10 μM, CHO-K1 stably expressing S1P1, S1P solution 100 nmol/L, Calcium3, read-out: Suppression rate at 10 μM (%) hS1P1
# [5] = 10 μM, CHO-K1 stably expressing S1P2, S1P solution 100 nmol/L, Calcium3, read-out: Suppression rate at 10 μM (%) hS1P2
# [6] = CHO-K1, read-out: Suppression rate at 10 μM (%) hS1P1
# [7] = CHO-K1, read-out: Suppression rate at 10 μM (%) hS1P2
# [8] = CHO-K1, read-out: Suppression rate at 10 μM (%) hS1P3
# T1 sequence (Q99500 whole entry): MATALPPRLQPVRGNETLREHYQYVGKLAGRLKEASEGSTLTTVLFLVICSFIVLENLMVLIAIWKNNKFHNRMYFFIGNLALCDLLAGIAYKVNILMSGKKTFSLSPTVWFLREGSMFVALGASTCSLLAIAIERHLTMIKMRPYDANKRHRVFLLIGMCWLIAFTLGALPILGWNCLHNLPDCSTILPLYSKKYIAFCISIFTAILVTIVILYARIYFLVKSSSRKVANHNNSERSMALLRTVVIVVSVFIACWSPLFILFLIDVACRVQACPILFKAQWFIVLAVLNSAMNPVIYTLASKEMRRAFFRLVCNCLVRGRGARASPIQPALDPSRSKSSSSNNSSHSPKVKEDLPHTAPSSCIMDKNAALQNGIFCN
# T2 sequence (P21453 whole entry): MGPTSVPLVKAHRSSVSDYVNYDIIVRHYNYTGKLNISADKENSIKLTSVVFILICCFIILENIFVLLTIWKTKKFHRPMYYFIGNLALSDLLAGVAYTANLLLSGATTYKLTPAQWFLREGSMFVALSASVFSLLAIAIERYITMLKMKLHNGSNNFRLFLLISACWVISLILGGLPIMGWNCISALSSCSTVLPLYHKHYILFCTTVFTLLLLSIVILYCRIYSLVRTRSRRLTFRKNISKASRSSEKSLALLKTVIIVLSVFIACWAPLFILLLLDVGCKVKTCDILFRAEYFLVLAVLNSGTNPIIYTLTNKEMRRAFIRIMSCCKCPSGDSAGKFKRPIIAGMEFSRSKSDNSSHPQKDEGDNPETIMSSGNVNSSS
# T3 sequence (O95136 whole entry): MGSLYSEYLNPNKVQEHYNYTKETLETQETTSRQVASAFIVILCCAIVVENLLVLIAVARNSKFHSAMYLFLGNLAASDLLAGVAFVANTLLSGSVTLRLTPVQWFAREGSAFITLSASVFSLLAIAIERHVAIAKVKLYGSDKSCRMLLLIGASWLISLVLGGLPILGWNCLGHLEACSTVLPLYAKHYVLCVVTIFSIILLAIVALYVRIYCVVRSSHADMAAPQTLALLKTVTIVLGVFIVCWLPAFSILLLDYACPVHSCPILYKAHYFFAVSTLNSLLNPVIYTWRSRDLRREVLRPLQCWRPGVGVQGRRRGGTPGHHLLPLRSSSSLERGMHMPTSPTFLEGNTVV
Structure (SMILES),IC50 (hS1P3 [1]) [nM],inhibition at 10 µM (hS1P3 [2]; [3]) [%],inhibition at 10 µM (hS1P1; [4]) [%],inhibition at 10 µM (hS1P2; [5]) [%],inhibition at 10 µM (hS1P1; [6]) [%],inhibition at 10 µM (hS1P2; [7]) [%],inhibition at 10 µM (hS1P3 [2]; [8]) [%]
"O=C(C(=NNc1ccc(Cl)cc1)Nc1cccc(F)c1F)c1ccccc1 [Compound 3, 2-(4-chlorophenylhydrazono)-2-(2,3-difluorophenylamino)acetophenone]",14700,68.5,18.6,-0.4,–,–,–
"O=C(C(=NNc1ccc(Cl)cc1)Nc1cccc(F)c1)N1CCCCC1 [Compound 21, [1-(4-Chlorophenylhydrazono)-1-(3-fluorophenylamino)acetyl]piperidine]",26800,91.1,17.5,13.7,–,–,–
"CC(C)(C)C(=O)C(=NNc1ccc(F)cc1)Nc1ccc(F)cc1 [Compound 54, 1-(4-fluorophenylamino)-1-(4-fluorophenylhydrazono)-3,3-dimethyl-2-butanone]",4380,101,22,16,–,–,–
"Cc1ccc(NN=C(Nc2ccc(C)cc2)C(=O)C(C)(C)C)cc1 [Compound 63, 1-(4-methylphenylamino)-1-(4-methylphenylhydrazono)-3,3-dimethyl-2-butanone]",5710,–,–,–,-9.1,-1.4,–
"Cc1ccc(NN=C(Nc2ccc(Cl)c(Cl)c2)C(=O)C(C)(C)C)cc1 [Compound 65, 1-(3,4-dichlorophenylamino)-1-(4-methylphenylhydrazono)-3,3-dimethyl-2-butanone]",670,–,5.1,10,–,–,–
"CC(C)(C)C(=O)C(=NNc1ccc(C(F)(F)F)cc1)Nc1ccc(F)cc1 [Compound 67, 1-(4-fluorophenylamino)-1-(4-trifluoromethylphenylhydrazono)-3,3-dimethyl-2-butanone]",8200,90.2,20.8,15.5,–,–,–
"CC(C)(C)C(=O)C(=NNc1ccc(Br)cc1)Nc1cccc(F)c1 [Compound 73, 1-(4-bromophenylhydrazono)-1-(3-fluorophenylamino)-3,3-dimethyl-2-butanone]",1900,–,5.1,22.3,–,–,–
"CC(C)(C)C(=O)C(=NNc1ccc(Br)cc1)Nc1ccc(F)cc1 [Compound 74, 1-(4-bromophenylhydrazono)-1-(4-fluorophenylamino)-3,3-dimethyl-2-butanone]",2320,105,20.4,23.2,–,–,–
"CC(C)(C)C(=O)C(=NNc1ccc(Br)cc1)Nc1ccc(Cl)cc1 [Compound 75, 1-(4-bromophenylhydrazono)-1-(4-chlorophenylamino)-3,3-dimethyl-2-butanone]",1170,–,–,–,17,17.9,–
"CC(C)(C)C(=O)C(=NNc1ccc(Br)cc1)Nc1ccc(Br)cc1 [Compound 76, 1-(4-bromophenylamino)-1-(4-bromophenylhydrazono)-3,3-dimethyl-2-butanone]",1660,103,5.1,26.1,–,–,–
"C#Cc1ccc(NC(=NNc2ccc(Br)cc2)C(=O)C(C)(C)C)cc1 [Compound 78, 1-(4-bromophenylhydrazono)-1-(4-ethynylphenylamino)-3,3-dimethyl-2-butanone]",970,–,–,–,25.1,20.8,105
"CC(C)(C)C(=O)C(=NNc1ccc(Br)cc1)Nc1ccc(Cl)c(Cl)c1 [Compound 80, 1-(4-bromophenylhydrazono)-1-(3,4-dichlorophenylamino)-3,3-dimethyl-2-butanone]",380,–,20.6,26.3,–,–,–
"CC(C)(C)C(=O)C(=NNc1ccc(Cl)c(Cl)c1)Nc1cccc(F)c1 [Compound 104, 1-(3,4-dichlorophenylhydrazono)-1-(3-fluorophenylamino)-3,3-dimethyl-2-butanone]",430,–,28.3,18.9,–,–,–
"C#Cc1ccc(NN=C(Nc2cccc(Cl)c2)C(=O)C(C)(C)C)cc1 [Compound 108, 1-(3-chlorophenylamino)-1-(4-ethynylphenylhydrazono)-3,3-dimethyl-2-butanone]",840,–,–,–,11.1,15.8,–
"C#Cc1ccc(NC(=NNc2ccc(Cl)cc2)C(=O)CCCC)cc1 [Compound 111, 1-(4-chlorophenylhydrazono)-1-(4-ethynylphenylamino)-2-hexanone]",1550,–,–,–,-16.6,23.1,95.1
"CCC(CC)C(=O)C(=NNc1ccc(Cl)cc1)Nc1ccc(F)cc1 [Compound 112, 1-(4-chlorophenylhydrazono)-1-(4-fluorophenylamino)-3-ethyl-2-pentanone]",1660,86.6,22.1,12.8,–,–,–
"CC(C)(C)CC(=O)C(=NNc1ccc(Cl)cc1)Nc1cccc(F)c1 [Compound 113, 1-(4-chlorophenylhydrazono)-1-(3-fluorophenylamino)-4,4-dimethyl-2-pentanone]",1780,–,5.9,20.7,–,–,–
"CCCCC(=O)C(=NNc1ccc(Cl)cc1)Nc1ccc(Cl)cc1 [Compound 115, 1-(4-chlorophenylamino)-1-(4-chlorophenylhydrazono)-2-hexanone]",2470,–,–,–,24.3,27,–
"C#Cc1ccc(NC(=NNc2ccc(Cl)cc2)C(=O)c2ccco2)cc1 [Compound 117, 1-(4-chlorophenylhydrazono)-1-(4-ethynylphenylamino)-2-(2-furyl)-2-ethanone]",2340,–,–,–,20.4,31.6,–
"C#Cc1ccc(NN=C(Nc2cccc(F)c2)C(=O)C(C)(C)C)cc1 [Compound 131, 1-(3-fluorophenylamino)-1-(4-ethynylphenylhydrazono)-3,3-dimethyl-2-butanone]",750,–,15.7,24.7,–,–,–
"CC(C)(C)C(=O)C(=NNc1ccc(Cl)cc1)Nc1cccc(Cl)c1 [Compound 133, 1-(3-chlorophenylamino)-1-(4-chlorophenylhydrazono)-3,3-dimethyl-2-butanone]",840,–,–,–,16.7,37.7,–
"CCC(CC)C(=O)C(=NNc1ccc(Cl)cc1)Nc1cccc(Cl)c1 [Compound 137, 1-(3-chlorophenylamino)-1-(4-chlorophenylhydrazono)-3-ethyl-2-pentanone]",1590,–,–,–,35.3,30.1,–
"CC(C)(C)CC(=O)C(=NNc1ccc(Cl)cc1)Nc1ccc(Cl)cc1 [Compound 139, 1-(4-chlorophenylamino)-1-(4-chlorophenylhydrazono)-4,4-dimethyl-2-pentanone]",1700,–,–,–,14.9,40.6,–
"CC(C)(C)CC(=O)C(=NNc1ccc(Cl)cc1)Nc1cccc(Cl)c1 [Compound 140, 1-(3-chlorophenylamino)-1-(4-chlorophenylhydrazono)-4,4-dimethyl-2-pentanone]",1990,–,–,–,18.3,26.2,–
